Data as given in patent US20050171084A1, “Methods of treatment with lxr modulators” (priority 2002, published 2005).

What was measured:
ABCA1 [1] = assay: ABCA1 gene expression in the CNS after oral dosing; assay type: in vivo, C57 B1/6 mice; conditions: oral gavage, Example 1 10 mg kg twice daily, T0901317 50 mg/kg once daily
Experimental: (§1) Total RNA was isolated from tissue and cell culture samples using TRIzol reagent (GibcoBRL). Briefly, tissue samples were thawed directly in 1 ml Trizol/50 mg tissue and homogenized with a polytron. To facilitate recovery of nucleic acid, 100 μg glycogen (Ambion) was added. Cultured cells were lysed in 1 ml Trizol containing 100 μg glycogen per well. Samples were then extracted in chloroform and spun at 4° C. at 11,000×g for 15 min. The aqueous phase was collected and the RNA was precipitated with the addition of isopropanol. The samples were then spun at 11,000×g at 4° C. for 15 min, the pellet washed in 75% ethanol, dried, and dissolved in water. Samples were stored at −70° C. until use.
(§2) Total RNA samples were diluted to 100 μg/ml and treated with 40 units/ml […] DNAse-I (Ambion) for 30 min at 37° C. followed by inactivation at 75° C. for 5 min. Samples were quantitated by spectrophotometry or with the RiboGreen assay (Molecular Probes) and diluted to a concentration of 10 ng/μl. Samples were then assayed in duplicate or triplicate 25-μl reactions using 25 ng RNA per reaction with Perkin Elmer chemistry on an ABI Prism 7700 (Perkin Elmer) according to manufacturer's instructions. Gene-specific primers were used at 7.5 or 22.5 pmol per reaction, optimized for each gene examined, and the gene-specific probe was used at 5 pmol per reaction. Primers and probe were synthesized by Keystone Labs (Camarillo, Calif.). In this system, the probe is degraded by Taq polymerase during the amplification phase, releasing the fluorescent tag from its quenched state; amplification data is expressed as the number of PCR cycles required to elevate the fluorescence signal beyond a threshold intensity level. Fold induction values were calculated by subtracting the mean threshold cycle number (Ct) for each treatment group from the mean Ct for the vehicle group and raising 2 to the power of this difference.
(§3) Adult male C57 B1/6 mice (3 per group) were dosed by oral gavage with the LXR agonists Example 1, T0901317, or vehicle (0.5% methylcellulose). Example 1 was delivered at 10 mg kg twice daily, while T0901317 was administered at 50 mg/kg once daily. After 3 or 7 days' treatment, animals were killed and their brains removed. The cerebellum and both hippocampi were dissected and snap frozen in liquid nitrogen for RNA isolation. Total RNA was prepared from the hippocampus and cerebellum (black bars) and analyzed for gene expression patterns using QRT-PCR (as described above). Expression levels for each gene in each tissue were normalized to the average expression level in the vehicle group. Both LXR agonists enhanced ABCA1 expression relative to the vehicle-treated group, with the effect most pronounced in the cerebellum after 3 days' treatment.

ABCG1 = ABCG1 gene expression in primary astrocyte cultures (QRT-PCR); assay type: cell-based, mouse; conditions: Astrocytes
Experimental: as §1
(§4) Total RNA samples were diluted to 100 μg/ml and treated with 40 units/ml […] DNAse-I (Ambion) for 30 min at 37° C. followed by inactivation at 75° C. for 5 min. Samples were quantitated by spectrophotometry or with the RiboGreen assay (Molecular Probes) and diluted to a concentration of 10 ng/μl. […] In this system, the probe is degraded by Taq polymerase during the amplification phase, releasing the fluorescent tag from its quenched state; amplification data is expressed as the number of PCR cycles required to elevate the fluorescence signal beyond a threshold intensity level. […]

ABCA1 [2] = assay: ABCA1 gene expression in primary astrocyte cultures (QRT-PCR); assay type: cell-based, mouse; conditions: Astrocytes
Experimental: as §1, §4

SREBP-1c [3] = assay: SREBP-1c gene expression in primary astrocyte cultures (QRT-PCR); assay type: cell-based, mouse; conditions: Astrocytes
Experimental: as §1, §4

Murine astroglia = assay: Cholesterol efflux from astrocytes; assay type: cell-based, mouse; conditions: basal efflux, standard deviation in parentheses, * p<0.05
Experimental: Murine astroglia were obtained from postnatal day 1 pups. Briefly, pups were decapitated, their brains removed, and the cerebral cortices prepared as described previously (45), except that astrocyte plating media was used (Dulbecco's modified eagle media [DMEM] containing 4 mg/ml glucose, 5% FBS and 5% HS [GibcoBRL or Irvine Scientific], 100 U/ml penecillin/100 μg/ml streptomycin, 25 mM HEPES, and 2-4 mM glutamine). Glia were grown in T75 flasks at a density of approximately 2 brains per flask. Cells were fed once weekly by complete media exchange in maintenance media (DMEM containing 4.5 mg/ml glucose, 10% FBS, 100 U/ml penecillin/100 μg/ml streptomycin, 25 mM HEPES, and 6 mM glutamine). By visual inspection, these cultures were nearly entirely astroglial with <1% contamination with microglia. After 7-14 days in vitro, cells were collected by trypsinization, counted in a hemacytometer, and plated into 6-well plates at 50-100,000 cells per well in maintenance media. […]
Cholesterol efflux assays were performed as described elsewhere (24) with some modifications. […] Two hundred microliters of the culture media supernatant and 200 μl of the cell extract were counted for tritium in 2 ml Packard Ultima Gold Scint. […] Efflux is expressed as percent of the total radiolabeled cholesterol pool present in the cultures.

SREBP-1c [4] = assay: SREBP-1c gene expression in primary neuron cultures (QRT-PCR); assay type: cell-based, mouse; conditions: Neurons
Experimental: as §1, §4

SREBP-1c [5] = assay: SREBP-1c gene expression in the CNS after oral dosing; assay type: in vivo, C57 B1/6 mice; conditions: oral gavage, Example 1 10 mg kg twice daily, T0901317 50 mg/kg once daily
Experimental: as §1, §2, §3

Compound	ABCA1 expression normalized to vehicle group (ABCA1 [1]; CB (cerebellum), first table)	ABCA1 expression normalized to vehicle group (ABCA1 [1]; CB (cerebellum), second table)	ABCA1 expression normalized to vehicle group (ABCA1 [1]; HC (hippocampus), first table)	ABCA1 expression normalized to vehicle group (ABCA1 [1]; HC (hippocampus), second table)	ABCG1 expression normalized to vehicle-treated group (fold induction) (ABCG1)	ABCA1 expression normalized to vehicle-treated group (fold induction) (ABCA1 [2])	SREBP-1c expression normalized to vehicle-treated group (fold induction) (SREBP-1c [3])	Cholesterol efflux as a percentage of total [3H] cholesterol (Murine astroglia)	SREBP-1c expression normalized to vehicle-treated group (fold induction) (SREBP-1c [4])	SREBP-1c expression normalized to vehicle group (SREBP-1c [5]; CB (cerebellum), first table)	SREBP-1c expression normalized to vehicle group (SREBP-1c [5]; CB (cerebellum), second table)	SREBP-1c expression normalized to vehicle group (SREBP-1c [5]; HC (hippocampus), first table)	SREBP-1c expression normalized to vehicle group (SREBP-1c [5]; HC (hippocampus), second table)
O=C(O)Cc1cccc(OCCCN(Cc2cccc(C(F)(F)F)c2Cl)CC(c2ccccc2)c2ccccc2)c1 [Example 1, 2-(3-{3-[[2-Chloro-3-(trifluoromethyl)benzyl](2,2-diphenylethyl)amino]propoxy}-phenyl)acetic Acid]	2.13 (0.354)	1.43 (0.302)	1.57 (0.348)	1.26 (0.162)	14.9	11.8	13.9	4.722 (0.783)* %	3.1	2.05 (0.427)	1.75 (0.236)	2.22 (0.600)	0.71 (0.327)
O=S(=O)(c1ccccc1)N(CC(F)(F)F)c1ccc(C(O)(C(F)(F)F)C(F)(F)F)cc1 [Example T0901317, N-(2,2,2-trifluoroethyl)-N-[4-(2,2,2-trifluoro-1-hydroxy-1-trifluoromethyl-ethyl)-phenyl]-benzenesulfonamide]	3.66 (0.389)	2.94 (0.084)	2.70 (0.304)	2.69 (0.175)	12.5	18.4	20.2	4.370 (0.561)* %	3.1	3.44 (0.632)	2.97 (0.557)	2.68 (0.209)	2.16 (0.110)
